Test results reported in ChEMBL document CHEMBL1137454, “Natural bromophenols from the marine red alga Polysiphonia urceolata (Rhodomelaceae): structural elucidation and DPPH radical-scavenging activity” (Bioorg Med Chem, 2007).

assay: DPPH radical scavenging activity relative to control; type: functional

IC50 | SMILES
9.67 µM | CC(=O)/C=C/c1cc(O)c(O)c(Br)c1
16.1 µM | CCCCOC(=O)Cc1cc(Br)c(O)c(Br)c1
21.9 µM | O=C(O)C(Cc1cc(O)c(O)c(Br)c1)c1cc(Br)c(O)c(Br)c1 (stereo not given)
19.6 µM | Oc1cc(CCc2cc(O)c(O)c(Br)c2)cc(Br)c1O
83.8 µM | Cc1cc(C(C)(C)C)c(O)c(C(C)(C)C)c1 [BUTYLATED HYDROXYTOLUENE]
